Assay results taken from publication PMC7960626, “Phase I study assessing the mass balance, pharmacokinetics, and excretion of [^14C]-pevonedistat, a NEDD8-activating enzyme inhibitor in patients with advanced solid tumors” (Investigational New Drugs, 2020).
Marks after values point to notes of the source that are not given here.

Legend:
[1] = Safety (TEAEs, NCI CTCAE v4.03) after single dose of [^14C]-pevonedistat (part A); type: in vivo, human; details: for On-study deaths, patients: part A, N = 8
Description: This was a two-part (A and B), open-label, multicenter, mass balance, distribution, metabolism, excretion (DME) study in adult patients with advanced solid tumors. In part A, patients received a single IV infusion of [^14C]-pevonedistat 25 mg/m^2 (containing approximately 60–85 µCi, or 2.22–3.145 MBq, of total radioactivity) at a single center (Duna Medical Center, Budapest, Hungary). Patients were required to stay at the part A study site for approximately 8 days or until the discharge criteria were met, with a maximum estimated confinement period of 9–14 days. Upon completion of part A, patients had the option to participate in part B at Medical Center Hungarian Defense Forces, Budapest, Hungary. In part B, patients received treatment in 3-week cycles with either: pevonedistat 20 mg/m^2 on days 1, 3, and 5 plus carboplatin AUC5 and paclitaxel 175 mg/m^2 on day 1; or pevonedistat 25 mg/m^2 on days 1, 3, and 5 plus docetaxel 75 mg/m^2 on day 1. Treatment was administered for 12 cycles or until discontinuation criteria were met.
Blood samples were collected for total radioactivity and PK assessments in whole blood and plasma at prespecified time points (pre dose [within 1 h before the start of the pevonedistat infusion], end of infusion, then 0.5, 1, 2, 3, 4, 8, 12, 24, 48, 72, 96, 120, 144 and 168 hours post dose). Complete urinary and fecal output were collected for analysis of PK (urine) and total radioactivity (urine and feces) throughout the confinement period until discharge criteria were met. Bioanalytical assay methods are shown in the Supplementary Methods. Safety was assessed by incidence and severity of TEAEs, vital signs, physical examinations, electrocardiograms, and clinical laboratory tests, and toxicities were graded according to the National Cancer Institute Common Terminology Criteria for Adverse Events (NCI CTCAE), version 4.03. In part B, disease assessments were conducted using radiological evaluations (computed tomography [CT] scan or magnetic resonance imaging [MRI], as clinically indicated).
(§1) PK data were summarized using descriptive statistics, and the PK and mass balance parameters described in Supplementary Table S1 were calculated by non-compartmental analysis for each individual patient. Safety was assessed in all patients who received at least one dose of pevonedistat, and TEAEs were coded according to the Medical Dictionary for Regulatory Activities (MedDRA), version 20.0. Analysis of efficacy in part B was descriptive; disease response was assessed in all patients who received at least one dose of pevonedistat, had measurable disease (per entry criteria for part B), and had at least one post-baseline disease assessment. Response assessment was done by the investigator using Response Evaluation Criteria in Solid Tumors (RECIST) version 1.1. SAS version 9.4 was used for all statistical analyses.

[2] = tested on: human xenograft tumors of activated B-cell (ABC) and germinal center B-cell (GCB) diffuse large B-cell lymphoma (DLBCL); parameters: method as in PMID 20525923; details: in vivo administration, mice; cited from earlier work
[3] = tested on: tumor cell lines including solid tumors (colon, lung) and hematological malignancies (myeloma, lymphoma); parameters: method as in PMID 19509147, PMID 20525923, PMID 20203261; details: preclinical studies; cited from earlier work
[4] = cited from earlier work
[5] = Plasma PK after a single 1-h IV infusion of [^14C]-pevonedistat 25 mg/m^2 (part A); type: in vivo, human
From the text: This was a two-part (A and B), open-label, multicenter, mass balance, distribution, metabolism, excretion (DME) study in adult patients with advanced solid tumors. […] Patients were required to stay at the part A study site for approximately 8 days or until the discharge criteria were met, with a maximum estimated confinement period of 9–14 days. Upon completion of part A, patients had the option to participate in part B at Medical Center Hungarian Defense Forces, Budapest, Hungary. […] Treatment was administered for 12 cycles or until discontinuation criteria were met.
Complete urinary and fecal output were collected for analysis of PK (urine) and total radioactivity (urine and feces) throughout the confinement period until discharge criteria were met. Bioanalytical assay methods are shown in the Supplementary Methods. […] In part B, disease assessments were conducted using radiological evaluations (computed tomography [CT] scan or magnetic resonance imaging [MRI], as clinically indicated).
Non-compartmental analysis using Phoenix™ WinNonlin® version 8.0 (Pharsight Corp., Mountain View, California, USA) was used for estimation of PK parameters for pevonedistat in whole blood, plasma, and urine and for total radioactivity in whole blood, plasma, urine, and feces. The following single-dose PK parameters were derived: maximum plasma concentration (Cmax), area under the concentration–time curve from time 0 to infinity (AUC∞), AUC from time 0 to the last quantifiable concentration (AUC0 − last), terminal disposition phase half-life (t1/2), renal clearance (CLR), clearance (CL), and volume of distribution at steady state (Vss).
as §1, with “analyses. […]” for “analyses.”
160 All samples were analyzed applying the methods described below: […]

[6] = human, plasma, single 1-h IV infusion 25 mg/m^2, geometric mean (CV), N = 7

NS(=O)(=O)OC[C@@H]1C[C@@H](n2ccc3c(N[C@H]4CCc5ccccc54)ncnc32)C[C@@H]1O [Pevonedistat]
Back pain, Any grade ([1]; human, in vivo): 1 (12.5) n (%)
Back pain, Grade ≥ 3 ([1]; human, in vivo): 0 n (%)
Constipation, Any grade ([1]; human, in vivo): 1 (12.5) n (%)
Constipation, Grade ≥ 3 ([1]; human, in vivo): 0 n (%)
Dizziness, Any grade ([1]; human, in vivo): 1 (12.5) n (%)
Dizziness, Grade ≥ 3 ([1]; human, in vivo): 0 n (%)
Sarcoma, Any grade ([1]; human, in vivo): 1 (12.5) n (%)
Sarcoma, Grade ≥ 3 ([1]; human, in vivo): 1 (12.5)^a n (%)
Serious TEAEs, patients ([1]; human, in vivo): 1 (12.5) n (%)
Serious TEAEs: Drug-related, patients ([1]; human, in vivo): 0 (0.0) n (%)
Serious TEAEs: Resulting in study discontinuation, patients ([1]; human, in vivo): 0 (0.0) n (%)
TEAEs: Grade ≥ 3, patients ([1]; human, in vivo): 1 (12.5) n (%)
TEAEs: Grade ≥ 3 drug-related, patients ([1]; human, in vivo): 0 (0.0) n (%)
Urinary retention, Any grade ([1]; human, in vivo): 1 (12.5) n (%)
Urinary retention, Grade ≥ 3 ([1]; human, in vivo): 0 n (%)
Vomiting, Any grade ([1]; human, in vivo): 1 (12.5) n (%)
Vomiting, Grade ≥ 3 ([1]; human, in vivo): 0 n (%)
Serious TEAEs, patients ([1]; in vivo): no serious TEAEs
On-study deaths, patients [1]: One
On-study deaths, patients ([1]; listed as [^14C]-pevonedistat): 1 (12.5)^a n (%)
tumor growth [2]: complete tumor growth inhibition
antitumor activity in cell lines [3]: growth inhibition
PK linearity ([4]; dose range 25–278 mg/m^2): linear and dose-proportional
elimination half-life in plasma ([4]; patients with metastatic melanoma): approximately 10 hours
mean terminal elimination half-life ([4]; plasma, estimated across doses and schedules, 1-h IV infusion): 5 to 8 h
typical CL ([4]; population PK analysis in more than 300 patients): 31.5 L/h
effect of mild or moderate renal impairment (creatinine clearance 30–89 mL/min) on exposure ([4]; population PK analysis): does not have a clinically meaningful impact on pevonedistat exposures
CL renal ([5]; human, plasma, iv, 25 mg/m^2): 13.3 mL/min
AUC(0-inf) [5, 6]: 1460 ng·h/mL
AUC(0-t) [5, 6]: 1410 ng·h/mL
Cmax [5, 6]: 218 ng/mL
clearance [5, 6]: 537 mL/min
Vd ([5]; human, plasma, single 1-h IV infusion 25 mg/m^2, geometric mean (CV), N = 7, read-out: Vss): 296 L
half-life ([5]; human, plasma, single 1-h IV infusion 25 mg/m^2, mean (SD), N = 7): 8.4 h
Exposure ratio (AUC∞) of pevonedistat vs. total drug-related material ([5]; plasma, single 1-h IV infusion 25 mg/m^2, mean): 0.41
CLR as share of pevonedistat total plasma clearance ([5]; single dose 25 mg/m^2): approximately 2.5%
systemic exposure of unchanged pevonedistat as share of drug-related material ([5]; single dose 25 mg/m^2, part A): 41%
